# Measured values as given in patent publication US4165379A, “N-acetyl thienamycin” (Merck & Co., Inc., priority 1977, dated 1979).
# Like-named read-outs stand apart in the source and are kept apart here.
# How the values were obtained:
# [1] = pKa from the λ max dependence on pH; assay type: physicochemical; details: read-out: pKa for a COOH group
# Staph aureus 2949 = test: Efficacy studies (mice), intraperitoneal infection (Table 4); assay type: in vivo, CD-1 female mice infected with Staph aureus; details: Staphylococcus aureus, 2949, ip, 168 h; i.p. × 2, at time of infection and again 6 hours later; challenge 13 LD50; survival seventh day after infection
# Protocol: (§1) In determining the in vivo activity, N-acetyl thienamycin is dissolved in and diluted with 0.01 M sodium phosphate, pH 7.0, to provide five fourfold concentrations of drug for testing. Female white Swiss mice, averaging about 21 g. in weight, were infected intraperitoneally with the test organism suspended in broth. The numbers of organisms injected were determined by standard plate-count techniques. At the time of infection, and again 6 hours later, certain of the mice were treated intraperitoneally with the antibiotic. Five mice were used for each concentration of drug tested. Controls of five mice for each of several dilutions of the infecting culture were included in each test in order to calculate the numbers of organisms that were lethal to 50% of the infected, untreated mice (LD50). This calculation was made using survival data of the seventh day after infection, at which time the amount of drug that should protect 50% of the infected mice (ED50) also was calculated.
# [2] = system: Vibrio percolans ATCC 8461; test: Disc-diffusion bioassay on ATCC 8461 plates; assay type: cell-based; details: crude sample (244 absorbance units at 298 nm); 1/2 inch disc, 0.1 ml of 1000 fold dilution; 25° C.
# Protocol: Assays of antibacterial activity are run according to the following disc-diffusion method using either Vibrio percolans ATCC 8461 or Staphylococcus aureus ATCC […] as tester organism. Plates containing Vibrio percolans ATCC 8461 are prepared as follows: A lyophilized culture of Vibrio percolans ATCC 8461 is suspended in 15 ml. of a sterilized medium containing 8 g./l. of Difco Nutrient Broth and 2 g./l. of yeast extract in distilled water (hereinafter designated NBYE). The culture is incubated overnight on a rotary shaker at 28° C. This culture is used to inoculate the surface of […] containing 1.5% agar in NBYE, and the inoculated […] incubated overnight at 28° C. and then stored in a refrigerator. The refrigerated […] prepared from a single lyophilized culture are used for up to four weeks from their preparation, as follows: A loop of inoculum from the slant is dispersed in 50 ml. of NBYE contained in a 250 ml. Erlenmeyer flask. […] The plates are incubated at 37° C. overnight, and the zone of inhibition is measured as mm. diameter. The zone of inhibition measured in mm. determines relative potencies. […] The solution contains 244 absorbance units at 298 nm and a 1/2 inch assay disc containing 0.1 ml. of a 1000 fold dilution, produces a 23 mm. zone of inhibition when incubated on ATCC 8461 plates at 25° C.
# [3] = system: gram-negative and gram-positive organisms; test: In vivo activity against infections in mice; details: mouse
# Protocol: as §1
# Klebsiella pneumoniae = test: Bauer-Kirby disc diffusion antibiotic spectrum (Table 3); assay type: cell-based; details: read-out: diameter of the zone of inhibition; for zone of inhibition at 10.35 µg/disc: Klebsiella pneumoniae, 10.35 μg/disc, prepared by acetylating thienamycin; for zone of inhibition at 9.85 µg/disc: 9.85 μg/disc, prepared by fermenting Streptomyces cattleya
# Excerpt: (§2) The test employs the Bauer-Kirby disc diffusion method modified only in respect to the 2 mm. agar depth employed here.
# Escherichia coli = test: as above; assay type: cell-based; details: read-out: diameter of the zone of inhibition; for zone of inhibition at 10.35 µg/disc: Escherichia coli, 10.35 μg/disc, prepared by acetylating thienamycin; for zone of inhibition at 9.85 µg/disc: 9.85 μg/disc, prepared by fermenting Streptomyces cattleya
# Excerpt: as §2
# Staphylococcus aureus = test: as above; assay type: cell-based; details: for diameter of the zone of inhibition: MB2314, resistance P (penicillins)
# Excerpt: as §2
# Bacillus subtilis = test: as above; assay type: cell-based; details: MB 964, ATCC 6633, read-out: diameter of the zone of inhibition
# Excerpt: as §2
# Enterobacter cloacae = test: as above; assay type: cell-based; details: read-out: diameter of the zone of inhibition; for zone of inhibition at 10.35 µg/disc: Enterobacter cloacae, 10.35 μg/disc, prepared by acetylating thienamycin; for zone of inhibition at 9.85 µg/disc: 9.85 μg/disc, prepared by fermenting Streptomyces cattleya
# Excerpt: as §2
# Pseudomonas aeruginosa = test: as above; assay type: cell-based; details: read-out: diameter of the zone of inhibition; for zone of inhibition at 9.85 µg/disc: 9.85 μg/disc, prepared by fermenting Streptomyces cattleya; for zone of inhibition at 10.35 µg/disc: Pseudomonas aeruginosa, 10.35 μg/disc, prepared by acetylating thienamycin
# Excerpt: as §2
# Serratia = test: as above; assay type: cell-based; details: MB2840, resistance P,C (penicillins, cephalosporins), read-out: diameter of the zone of inhibition
# Excerpt: as §2
# Proteus mirabilis = test: as above; assay type: cell-based; details: MB2830, resistance P,C (penicillins, cephalosporins), read-out: diameter of the zone of inhibition
# Excerpt: as §2
# Proteus morganii = test: as above; assay type: cell-based; details: MB2833, resistance P,C (penicillins, cephalosporins), read-out: diameter of the zone of inhibition
# Excerpt: as §2
# [4] = system: Staphylococcus aureus ATCC 6538P; test: Disc-diffusion potency in units/mg relative to cephalothin; assay type: cell-based
# Protocol: Plates containing Staphylococcus aureus ATCC 6538P are prepared as follows:
# An overnight growth of the assay organism, Staphylococcus aureus ATCC 6538P, in nutrient broth plus 0.2% yeast extract is diluted with nutrient broth plus 0.2% yeast extract to a suspension having 55% transmittance at a wavelength of 660 nm. This suspension is added to Difco nutrient agar supplemented with 2.0 g./l. Difco yeast extract at 47° C. to 48° C., to make a composition containing 33.2 ml. of the suspension per liter of agar. Five ml. of this suspension is poured into petri dishes of 85 mm. diameter, and these plates are chilled and held at 4° C. until used (5 day maximum).
# Samples of antibiotic to be assayed are diluted to an appropriate concentration in phosphate buffer at pH 7. Filter paper discs, 1/4 or 1/2 inch diameter, are dipped into the test solution and placed on the surface of the assay plate. The plates are incubated at 37° C. overnight, and the zone of inhibition is measured as mm. diameter. The zone of inhibition measured in mm. determines relative potencies.
# The 48 l. concentrate is adjusted to pH 7.3 and adsorbed on 76 l. of Dowex 1×2, 50 to 100 mesh, chloride cycle resin at 7.6 l./min. The resin is eluted with deionized water at the same rate. Four fractions are collected, two of 48 l., one of 70 l. and one of 48 l. The fractions are adjusted to pH 7 as collected. Assays indicate that 68% of the starting bioactivity is in the 70 l. fraction. This fraction is concentrated to 18 l. at pH 7.0 and filtered using a 0.45 micron Millipore Filter.
# [5] = MB2921, resistance P (penicillins)
# [6] = MB2922, resistance P (penicillins)
# [7] = MB2482, resistance P (penicillins)
# [8] = MB2964, resistance P,C (penicillins, cephalosporins)
# [9] = 9.85 μg/disc, prepared by fermenting Streptomyces cattleya
# [10] = MB2646, resistance P,C (penicillins, cephalosporins)
# [11] = MB2824, resistance P,C (penicillins, cephalosporins)
# [12] = MB2835, resistance P,C (penicillins, cephalosporins), zone hazy
# [13] = MB3286, resistance P,C (penicillins, cephalosporins)
smiles,measurement,setting,value
"CC(=O)NCCSC1=C(C(=O)O)N2C(=O)C(C(C)O)C2C1 (centres unmarked) [N-Acetyl Thienamycin, N-acetyl thienamycin]",pKa,[1],3.3 ± 0.1
same,ED50,Staph aureus 2949,0.05 mg/kg
same,zone of inhibition,[2],23 mm
same,in vivo activity,[3],exhibits in vivo activity against gram-negative and gram-positive organisms
same,zone of inhibition at 10.35 µg/disc,Klebsiella pneumoniae; [5],28.5 mm
same,zone of inhibition at 10.35 µg/disc,Klebsiella pneumoniae; [6],30 mm
same,zone of inhibition at 9.85 µg/disc,Klebsiella pneumoniae; [5],28 mm
same,zone of inhibition at 9.85 µg/disc,Klebsiella pneumoniae; [6],27 mm
same,zone of inhibition at 10.35 µg/disc,Escherichia coli; [7],28 mm
same,zone of inhibition at 10.35 µg/disc,Escherichia coli; MB2884,31.5 mm
same,zone of inhibition at 10.35 µg/disc,Escherichia coli; [8],29.5 mm
same,zone of inhibition at 9.85 µg/disc,Escherichia coli; [7],28 mm
same,zone of inhibition at 9.85 µg/disc,Escherichia coli; MB2884,31.5 mm
same,zone of inhibition at 9.85 µg/disc,Escherichia coli; [8],28.5 mm
same,diameter of the zone of inhibition,Staphylococcus aureus; [9],37 millimeters
same,diameter of the zone of inhibition,"Staphylococcus aureus; 10.35 μg/disc, prepared by acetylating thienamycin",37 millimeters
same,zone of inhibition at 9.85 µg/disc,"Staphylococcus aureus; MB2985, 9.85 μg/disc, prepared by fermenting Streptomyces cattleya, read-out: diameter of the zone of inhibition",37 mm
same,zone of inhibition at 10.35 µg/disc,"Staphylococcus aureus; Staphylococcus aureus, MB2985, 10.35 μg/disc, prepared by acetylating thienamycin, read-out: diameter of the zone of inhibition",37 mm
same,zone of inhibition at 10.35 µg/disc,"Bacillus subtilis; Bacillus subtilis, ATCC6633, 10.35 μg/disc, prepared by acetylating thienamycin",44.5 mm
same,zone of inhibition at 9.85 µg/disc,Bacillus subtilis; [9],43 mm
same,zone of inhibition at 10.35 µg/disc,Enterobacter cloacae; [10],27 mm
same,zone of inhibition at 10.35 µg/disc,Enterobacter cloacae; MB2647,29 mm
same,zone of inhibition at 9.85 µg/disc,Enterobacter cloacae; [10],26.5 mm
same,zone of inhibition at 9.85 µg/disc,Enterobacter cloacae; MB2647,29 mm
same,zone of inhibition at 9.85 µg/disc,Pseudomonas aeruginosa; [11],23 mm
same,zone of inhibition at 9.85 µg/disc,Pseudomonas aeruginosa; [12],11 mm
same,zone of inhibition at 9.85 µg/disc,Pseudomonas aeruginosa; [13],0 mm
same,zone of inhibition at 10.35 µg/disc,Pseudomonas aeruginosa; [11],24 mm
same,zone of inhibition at 10.35 µg/disc,Pseudomonas aeruginosa; [12],11 mm
same,zone of inhibition at 10.35 µg/disc,Pseudomonas aeruginosa; [13],0 mm
same,zone of inhibition at 9.85 µg/disc,Serratia; [9],27 mm
same,zone of inhibition at 10.35 µg/disc,"Serratia; Serratia, 10.35 μg/disc, prepared by acetylating thienamycin",27 mm
same,zone of inhibition at 9.85 µg/disc,Proteus mirabilis; [9],25 mm
same,zone of inhibition at 10.35 µg/disc,"Proteus mirabilis; Proteus mirabilis, 10.35 μg/disc, prepared by acetylating thienamycin",26 mm
same,zone of inhibition at 9.85 µg/disc,Proteus morganii; [9],25.5 mm
same,zone of inhibition at 10.35 µg/disc,"Proteus morganii; Morganella morganii, 10.35 μg/disc, prepared by acetylating thienamycin",25 mm
C[C@@H](O)[C@H]1C(=O)N2C(C(=O)O)=C(SCCN)C[C@H]12 [thienamycin],calculated potency,[4]; 23.6 mg. after second XAD-2 column,"30,140 units/mg"
same,average potency,"[4]; 90 mg. after Bio-Gel P-2, fractions 75 through 80","10,000 units/mg"
same,potency,"[4]; 100.5 mg. after Bio-Gel P-2, fractions 75 through 79","8,320 units/mg"
same,calculated potency,"[4]; after second XAD-2 column, 3.1 fold purification","31,000 units/mg"
same,potency,[4]; freeze-dried product after Dowex 1×2,310 units/mg
